# Data: patent publication US6514942B1, “Methods and compositions for stimulating T-lymphocytes” (The Board of Regents, The University of Texas System, priority 1995, dated 2003)
# Key:
# C84 reactive CTL = assay: Recognition by C84 reactive CTL; type: cell-based, human
# Description: The analogs with sequences C91=[…], (SEQ ID NO:4) and C92=[…] (SEQ ID NO:3) are also compositions of the present invention. In addition, substitutions at P4 (S→K) and P6 (F→V) affect residues that are expected to interact with TCR. […] Both C81 and C82 can form the core for antagonists of HER-2 reactive CTLs (to control and stop CTL reactions), and as such represent the first “universal” antagonists reported for stimulating CTLs.
# [1] = molecular target: T1, HLA-A2 on indicator T2 cells (Homo sapiens, UniProt P04439, D140Y/D185E/D98H/E176V/E277Q/G131W/G231S/I119V/I121R/I166T/I218V/L300P/L318F/N151K/N90K/P208A/P217A/Q86G/Q94H/R138H/R169H/T345S); assay: Stabilization of HLA-A2 expression on indicator line T2; type: cell-based
# T1 construct: cell surface expression of HLA-A2 is lower (30-40%) than in normal LBL lines transfected with HLA-A2; endogenous in cells; host or cells: T2 (transport deletion mutant) human lymphoblastoid cells, obtained from Dr. Peter Creswell
# Description: Since HER-2 is a self-antigen, during thymic selection, a number of T-cells carrying receptors with high affinity for the HLA-peptide complex are silenced either by elimination ro tolerization. A pre-condition for induction of a high affinity TCR-(MHC+peptide) interactions, is a stable (MHC+peptide) complex. […] However, stabilization of HLA-Class I binding by exogenously added peptide is dependent on introduction of dominant anchors in positions P2 and P9 which are not recognized by TCR.
# Peptide D113, […] (SEQ ID NO:17), is the natural nonapeptide […].
sequence,measurement,setting,value
"ELVKEVSKV [Peptide C82, C85 analog with P4 (S→K) and P6 (F→V) substitutions]",recognition by C84 reactive CTL,C84 reactive CTL,no longer recognized by C84 reactive CTL
same,HLA-A2 binding,[1],binds HLA-A2
